{
  "source": "patent US20100284925A1",
  "about": "“Small Molecule Intervention for Obesity” (priority 2006, published 2010)",
  "key": {"[1]": {"assay": "Cytotoxicity in cell culture studies", "format": "cell-based", "details": "data not shown"}, "NFκB": {"system": "NFκB", "assay": "NFκB-response element luciferase reporter in L1 preadipocytes", "format": "cell-based", "details": "prieurianin 2 μM"}, "[2]": {"system": "20-hydroxyecdysone activity", "details": "drosophila cells in culture; cited from earlier work"}, "NIH-3T3/L1 preadipocytes": {"system": "NIH-3T3/L1 preadipocytes", "format": "cell-based", "details": "2 μM", "description": "FIG. 7D. Flow cytometric analysis of annexin V binding to phosphatidylserine, apoptotic cells are on the upper right quadrant. All experiments were conducted in triplicate."}, "adiponectin": {"system": "adiponectin", "assay": "Adiponectin release into conditioned media (Western blot)", "format": "cell-based", "description": "(§1) FIG. 10. Release of adiponectin and PLTP by preadipocytes and adipocytes, and in serum of normal mice. Preadipocytes (B and D) were treated with 2 μM of prieurianin and media collected after 36 hrs for Western blot analysis of either adiponectin (A and B) or PLTP (C and D). Alternatively, five days following differentiation, conditioned media of adipocyets (A and C) were collected for Western analysis. E. Serum of normal C57BL/6J mice given prieurianin or topotecan (0, 2, 5, and 10 mg/kg) was analyzed by Western blot for PLTP.\nAdipose tissue contains various types of cells including preadipocytes and adipocytes. Also, preadipocytes secrete factors involved in their own differentiation. Once differentiated, the mature adipocytes acquire the ability to communicate distally with other organs including brain, liver, and skeletal muscle and locally with other cells such as preadipocytes, endothelial cells and monocytes/macrophages by secreting leptin and adiponectin. In addition, anti-adipogenic cytokines prevent the release of adiponectin by preadipocytes. Thus, the production of adiponectin and PLTP by preadipocytes and adipocytes was assessed."}, "C/EBPβ": {"system": "C/EBPβ", "assay": "C/EBPβ response element luciferase reporter in L1 preadipocytes", "format": "cell-based", "details": "prieurianin 2 μM", "description": "(§2) FIG. 18. Effects of prieurianin on C/EBPα and β and PPARγ mediated transcription in adipogenesis. Response elements corresponding to C/EBPα and β and PPARγ are cloned into the pGL3 basic luciferase reporter plasmid. L1 preadipocytes were contransfected with the reporter plasmid either in the presence or the absence of the corresponding transcription factors cloned into expression vector, followed by treatment with 2 μM of prieurianin. Cells were harvested for luciferase assay 15-24 hrs later. Results are means±S.E. of triplicate experiments."}, "PPARγ": {"system": "PPARγ", "assay": "PPARγ response element luciferase reporter in L1 preadipocytes", "format": "cell-based", "details": "prieurianin 2 μM", "description": "as §2"}, "PLTP promoter": {"system": "PLTP promoter", "assay": "PLTP-promoter luciferase reporter in HepG2 and transgenic HepG2/PLTPpLuc cells", "format": "cell-based, human", "details": "luciferase reporter, HepG2 or HepG2/PLTPpLuc cells", "text": "FIG. 2A. A 1.5 Kb PLTP promoter fused to a luciferase reporter was transactivated by topotecan dose-dependently.\nFIG. 2B. Activation of PLTP promoter by topotecan in HepG2 transgenic cells containing the PLTP-promoter luciferase reporter gene fused to the neomycin selectable marker cassette and stably transfected into HepG2 cells to generate the transgenic line (Top panel). Dose-dependent induction of PLTP promoter by topotecan (Bottom panel). Results are the means S.E. of three experiments after normalization with Renilla luciferase.\nFIG. 3A. Dose-dependent transactivation of the PLTP promoter by prieurianin in the HepG2 transgenic cells. Results are the means S.E. of three experiments after normalization with Renilla luciferase.\nFIG. 3B. […] 1, Control; 2. […] Results are the means±S.E. of triplicate experiments.\nFIG. 11. Transactivation of PLTP promoter by cytotoxic and non-cytotoxic drugs. Survey of transactivation of the PLTP promoter by various cytotoxic and non-cytotoxic drugs in the HepG2 transgenic cells was conducted. Results are the means S.E. of three experiments.\nFIG. 12. Effects of trichostatin A (TSA) on transactivation of PLTP promoter by prieurianin. Dose response activation of PLTP promoter by prieurianin either in the presence or the absence of 200 nM TSA. Results are the means S.E. of three experiments.\nTo determine whether non-cytotoxic small molecules could induce PLTP expression, the inventor herein subcloned the PLTP-promoter luciferase reporter into a vector containing a neomycin (G418)-resistance selectable marker and generated a transgenic HepG2 cell line, which harbors the PLTP-promoter luciferase reporter, by stable gene transfection and selection with G418.\nThe transgenic cells were then screened with a library of small molecules derived from natural products."}, "[3]": {"assay": "Body weight in leptin-receptor deficient db/db mice", "format": "in vivo", "description": "FIG. 15A. Groups of 10 db/db mice were given either 3 or 5 mg/kg of prieurianin i.p. daily for 30 days.\n(§3) The effects of prieurianin were tested in three additional mouse models of obesity including the genetically hyperinsulinemic leptin-receptor deficient db/db, the Ceacam−/− glucose intolerant/diabetic, and the diet-induced obese mice. Prieurianin was administered intraperitoneally (i.p.) to 12-14 week-old db/db mice daily (3 or 5 mg/kg) for 30 days. The diet-induced obese Ceacam−/− diabetic mice were fed a high fat diet for 4 weeks for fattening, followed by prieurianin treatment (3 or 5 mg/kg) for 3 weeks. Vehicle treated controls received equivolume injections of Captisol (CyDex Inc., Lenexa, Kans.). Body weight and food intake were measured every three days, and blood samples were collected at the end of the experiment."}, "PLTP": {"system": "PLTP", "assay": "PLTP release into conditioned media (Western blot)", "format": "cell-based", "description": "as §1\nThe expression and secretion of PLTP by preadipocytes and adipocytes was also assessed. Thus, preadipocytes produced and released both the low and the high molecular weight forms of PLTP, while adipocytes secreted only the low molecular weight form (see FIGS. 10C and 10D) into the conditioned media."}, "[4]": {"format": "in vivo, mice", "description": "FIG. 15B. Genetically diabetic Ceacam^−/− knockout mice were fed high fat diet for fattening for 4 weeks followed by daily prieurianin treatment (3 or 5 mg/kg) for 21 days. Vehicle treated db/db and Ceacam^−/− mice were given equivolume of Captisol. Results are the means S.E. of 10 animals per group.\nas §3"}},
  "note": "Entries after “also recorded” stand apart in the source; their conditions may differ.",
  "data": [
    {"molecule": "C=C1[C@@H]([C@@]2(C)[C@@H](OC(C)=O)CC(=O)O[C@](C)(COC(C)=O)[C@@H]2C(=O)OC)[C@@H](OC=O)[C@H](OC(=O)[C@H](O)[C@H](C)CC)[C@@]2(C)[C@H](c3ccoc3)CC(=O)[C@]12O", "note": "[prieurianin]", "values": [
      {"measurement": "cytotoxicity", "setting": "[1]", "result": "relatively non-cytotoxic compared with topotecan; also recorded: relatively non-cytotoxic compared to topotecan"},
      {"measurement": "NFκB-response element mediated transcription", "setting": "NFκB", "result": "induces transactivation from the NFκB-response element mediated transcription"},
      {"measurement": "antagonism against 20-hydroxyecdysone activity", "setting": "[2]", "result": "antagonism against 20-hydroxyecdysone activity"},
      {"measurement": "apoptosis (annexin V binding to phosphatidylserine)", "setting": "NIH-3T3/L1 preadipocytes", "result": "did not differentially induce apoptosis"},
      {"measurement": "adiponectin release by preadipocytes", "setting": "adiponectin; NIH-3T3/L1 preadipocytes, approximately 36 hrs after treatment", "result": "inhibition of adiponectin release"},
      {"measurement": "adiponectin production and release in differentiated adipocytes", "setting": "adiponectin; differentiated adipocytes", "result": "induced the production and release of high molecular weight form, as well as a modest increase in the secretion of total adiponectin"},
      {"measurement": "transactivation potential of C/EBPβ", "setting": "C/EBPβ", "result": "inhibits the transactivation potential"},
      {"measurement": "transactivation potential of PPARγ", "setting": "PPARγ", "result": "inhibits the transactivation potential"},
      {"measurement": "transactivation of PLTP promoter", "setting": "PLTP promoter", "result": "exhibited the strongest transactivation of the PLTP promoter, and showed induction of PLTP in a dose-dependent manner"},
      {"measurement": "weight loss", "setting": "[3]; 3 or 5 mg/kg i.p. daily", "result": "No weight loss was observed"},
      {"measurement": "attenuation of weight gain", "setting": "[3]; over three weeks, vs untreated or vehicle-treated controls", "result": 50, "unit": "%"},
      {"measurement": "release of PLTP by adipocytes", "setting": "PLTP; adipocytes", "result": "induced an increase in the release of only the low molecular weight form of PLTP"},
      {"measurement": "release of PLTP by preadipocytes", "setting": "PLTP; preadipocytes", "result": "release of the low but not the high molecular form of PLTP was reduced"},
      {"measurement": "body weight relative to pre-fattening", "setting": "[4]; 3 mg/kg treated group", "result": "Body weight returned to pre-fattening level"},
      {"measurement": "toxicity", "setting": "[4]; Ceacam−/− mice given 5 mg/kg", "result": "euthanized after 14 days of treatment due to severe weight loss and unknown toxicity"},
      {"measurement": "subcutaneous or visceral fats in postmortem analysis", "setting": "[4]; Ceacam−/− mice given 5 mg/kg, relative to controls", "result": "Little subcutaneous or visceral fats were observed"},
      {"measurement": "body weight loss", "setting": "[4]; diet-induced obese Ceacam−/− mice, 3 or 5 mg/kg", "result": "20-26%"},
      {"measurement": "reduced food intake", "setting": "[4]; diet-induced obese Ceacam−/− mice, compared to controls", "result": "> 50", "unit": "%"}
    ]}
  ]
}
